Data taken from patent publication US12509454B2, “Thiadiazolyl derivatives” (IDEAYA Biosciences, Inc., priority 2019, dated 2025).

Target: Pol theta (1-899) (Homo sapiens (Human), UniProt O75417)
Assay: Pol theta ATPase activity, NADH oxidation-coupled enzymatic assay
Format: biochemical
Conditions: Pol theta (1-899) 10 nM, ATP, dT50 ssDNA, absorbance 340 nm, 10-point dilution series; read-out: ATPase NADH coupling:Standard Screening:hPolQ IC50
Method: The ability of the compounds of Formula (I) to inhibit ATPase activity of Pol theta (1-899) was determined using the assay described below.
Pol Theta ATPase activity was determined by measuring the rate of ATP turn over in a NADH oxidation-coupled enzymatic assay. 10-point dilution series of compounds were used in a 384 well format for the inhibition assays. Pol theta (1-899) (10 nM) in assay buffer (20 mM Tris HCl (pH 7.80), 80 mM KCl, 10 mM MgCl2, 1 mM DTT, 0.01% BSA, 0.01% Tween, 5% glycerol) was transferred to the test wells (20 μL), except the low control wells (20 μL of assay buffer was added to the low control wells). The plate was then incubated at room temperature for 15 min. An equal volume (20 μL) of 100 μM ATP, 300 nM dT50 (single-stranded DNA (ssDNA) containing 50 thymine bases), 300 μM NADH, 6 mM PEP, 10 U/mL lactate dehydrogenase and 20 U/mL pyruvate kinase in assay buffer was added to all the test wells. The plate was then centrifuged at 1000 rpm for 1 min. The reaction was monitored for 30 min by measuring absorbance (λ=340 nm) in a Tecan Spark multimode plate reader every minute. The high control (DMSO with enzyme) with low absorbance intensity represents no inhibition of ATPase reaction while the low control (DMSO with buffer) with high absorbance intensity represents full inhibition of ATPase activity. Slope of the reaction progress curves were used to calculate the rate of ATP hydrolysis. The rates were used to determine the percent inhibition using a four-parameter inhibition model to generate IC50, Hill slope and max inhibition.

Pol theta (1-899), sequence (O75417 1-899): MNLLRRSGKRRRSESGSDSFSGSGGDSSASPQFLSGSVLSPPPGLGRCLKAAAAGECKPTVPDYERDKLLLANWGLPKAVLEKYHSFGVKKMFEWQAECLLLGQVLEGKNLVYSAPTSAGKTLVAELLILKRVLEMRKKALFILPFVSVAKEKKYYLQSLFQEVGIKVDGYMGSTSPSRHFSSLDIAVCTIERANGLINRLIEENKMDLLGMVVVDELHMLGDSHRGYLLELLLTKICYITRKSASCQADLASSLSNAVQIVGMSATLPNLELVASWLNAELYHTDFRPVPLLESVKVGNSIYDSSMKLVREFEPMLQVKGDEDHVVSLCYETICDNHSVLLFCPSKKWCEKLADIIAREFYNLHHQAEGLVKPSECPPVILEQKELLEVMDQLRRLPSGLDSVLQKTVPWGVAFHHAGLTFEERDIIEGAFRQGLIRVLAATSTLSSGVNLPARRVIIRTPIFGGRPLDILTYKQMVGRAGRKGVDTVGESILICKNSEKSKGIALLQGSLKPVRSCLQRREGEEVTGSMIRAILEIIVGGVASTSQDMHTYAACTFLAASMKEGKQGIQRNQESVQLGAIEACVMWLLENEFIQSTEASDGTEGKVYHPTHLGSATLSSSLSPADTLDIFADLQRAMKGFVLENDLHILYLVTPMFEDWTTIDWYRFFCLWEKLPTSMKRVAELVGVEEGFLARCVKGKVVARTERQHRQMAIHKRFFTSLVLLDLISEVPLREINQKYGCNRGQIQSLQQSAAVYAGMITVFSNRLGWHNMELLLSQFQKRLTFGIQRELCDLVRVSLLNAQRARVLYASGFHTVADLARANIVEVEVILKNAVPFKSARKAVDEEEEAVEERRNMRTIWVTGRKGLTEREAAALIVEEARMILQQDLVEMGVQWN

Row | Structure (SMILES) | IC50 [nM]
1 | COc1ccccc1-c1cc(CC#N)ncc1C(=O)Nc1nnc(OCc2ccc(Cl)cc2)s1 [Example 105, N-(5-((4-chlorobenzyl)oxy)-1,3,4-thiadiazol-2-yl)-6-(cyanomethyl)-4-(2-methoxyphenyl)nicotinamide] | ≤ 200
2 | O=C(Nc1nnc(OCc2ccc(Cl)cc2)s1)c1cccnc1-c1ccccc1Cl [Example 150, N-(5-((4-chlorobenzyl)oxy)-1,3,4-thiadiazol-2-yl)-2-(2-chlorophenyl)nicotinamide] | 200 to 500
3 | COc1ccccc1-n1cncc1C(=O)Nc1nnc(OCc2ccc(C3CC3)cc2)s1 [Example 149, N-(5-((4-cyclopropylbenzyl)oxy)-1,3,4-thiadiazol-2-yl)-1-(2-methoxyphenyl)-1H-imidazole-5-carboxamide] | ≤ 200
4 | O=C(Nc1nnc(OCc2ccc(Cl)cn2)s1)c1cccnc1N1CCC(F)(F)CC1 [Example 39, N-(5-((5-chloropyridin-2-yl)methoxy)-1,3,4-thiadiazol-2-yl)-2-(4,4-difluoropiperidin-1-yl)nicotinamide] | 1000 to 10000
5 | CC1CNC(=O)CN1c1ncccc1C(=O)Nc1nnc(OCc2ccc(Cl)cc2)s1 (racemic) [Example 60, (R) N-(5-((4-chlorobenzyl)oxy)-1,3,4-thiadiazol-2-yl)-2-(2-methyl-5-oxopiperazin-1-yl)nicotinamide and (S) N-(5-((4-chlorobenzyl)oxy)-1,3,4-thiadiazol-2-yl)-2-(2-methyl-5-oxopiperazin-1-yl)nicotinamide] | ≤ 200
6 | COc1ccccc1-c1cc(CCC(N)=O)ncc1C(=O)Nc1nnc(OCc2ccc(Cl)cc2)s1 [Example 163, 6-(3-amino-3-oxopropyl)-N-(5-((4-chlorobenzyl)oxy)-1,3,4-thiadiazol-2-yl)-4-(2-methoxyphenyl)nicotinamide] | ≤ 200
7 | COc1ccccc1-c1nc(C#N)ccc1C(=O)Nc1nnc(OCc2ccc(Cl)cc2)s1 [Example 71, N-(5-((4-chlorobenzyl)oxy)-1,3,4-thiadiazol-2-yl)-6-cyano-2-(2-methoxyphenyl)-nicotinamide] | ≤ 200
8 | N#Cc1cc(N2CCOC3(CC3)C2)c(C(=O)Nc2nnc(OCc3ccc(Cl)cc3)s2)cn1 [Example 177, N-[5-[(4-chlorophenyl)methoxy]-1,3,4-thiadiazol-2-yl]-6-cyano-4-[4-oxa-7-azaspiro[2.5]octan-7-yl]pyridine-3-carboxamide] | ≤ 200
9 | O=C(Nc1nnc(OCc2ccc(C3COC3)cc2)s1)c1cccnc1N1CCOCC1 [Example 56, 2-morpholino-N-(5-((4-(oxetan-3-yl)benzyl)oxy)-1,3,4-thiadiazol-2-yl)nicotinamide] | 1000 to 10000
10 | O=C(Nc1nnc(OCc2ccc(Cl)cc2)s1)c1cccnc1N1CCOC2(CC2)C1 [Example 30, N-(5-((4-chlorobenzyl)oxy)-1,3,4-thiadiazol-2-yl)-2-(4-oxa-7-azaspiro[2.5]octan-7-yl)nicotinamide] | ≤ 200
11 | COc1cc(N2CCOCC2)c(C(=O)Nc2nnc(OCc3ccc(Cl)cc3)s2)cn1 [Example 75, N-(5-((4-chlorobenzyl)oxy)-1,3,4-thiadiazol-2-yl)-6-methoxy-4-morpholino-nicotinamide] | 500 to 1000
12 | COc1cc(N2CCOCC2)c(C(=O)Nc2nnc(OCc3ccc(Cl)cn3)s2)cn1 [Example 36, N-(5-((5-chloropyridin-2-yl)methoxy)-1,3,4-thiadiazol-2-yl)-6-methoxy-4-morpholinonicotinamide] | 1000 to 10000
13 | Cc1cc(-c2cccc3c2OC(F)(F)O3)c(C(=O)Nc2nnc(OCc3ccc(Cl)cn3)s2)cn1 [Example 208, N-(5-((5-chloropyridin-2-yl)methoxy)-1,3,4-thiadiazol-2-yl)-4-(2,2-difluorobenzo[d][1,3]dioxol-4-yl)-6-methylnicotinamide] | ≤ 200
14 | O=C(Nc1nnc(OCc2cnc(Cl)cn2)s1)c1cccnc1N1CCOCC1 [Example 19, N-[5-[(5-chloropyrazin-2-yl)methoxy]-1,3,4-thiadiazol-2-yl]-2-(morpholin-4-yl)pyridine-3-carboxamide] | 1000 to 10000
